Measurements from ChEMBL document CHEMBL3804805, “Cathepsin B Inhibitors: Combining Dipeptide Nitriles with an Occluding Loop Recognition Element by Click Chemistry” (ACS Med Chem Lett, 2016).
pKi: −log10 of the molar value.

What was measured:
Cathepsin B [1] = target: T1, Cathepsin B (Homo sapiens, UniProt P07858); assay: Inhibition of human liver cathepsin B using Cbz-Arg-Arg-pNA as substrate at pH 6 incubated for 30 mins measured for 20 mins by photometrical analysis
Cathepsin S = Cathepsin S (Homo sapiens, UniProt P25774); assay: Inhibition of human recombinant cathepsin S using Cbz-Phe-Arg-AMC as substrate incubated for 60 mins measured for 20 mins by spectrofluorometrical analysis
Chain of Cathepsin S (P25774 whole entry): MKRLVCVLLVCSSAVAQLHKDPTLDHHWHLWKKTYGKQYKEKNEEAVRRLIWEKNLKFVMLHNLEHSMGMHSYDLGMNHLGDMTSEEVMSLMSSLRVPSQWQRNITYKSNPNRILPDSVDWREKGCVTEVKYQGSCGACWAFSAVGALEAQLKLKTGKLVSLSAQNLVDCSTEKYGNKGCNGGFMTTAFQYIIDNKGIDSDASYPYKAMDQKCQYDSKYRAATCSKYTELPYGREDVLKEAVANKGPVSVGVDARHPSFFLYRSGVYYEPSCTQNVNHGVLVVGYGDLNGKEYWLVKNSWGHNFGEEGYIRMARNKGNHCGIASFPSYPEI

Procathepsin L = Procathepsin L (Homo sapiens, UniProt P07711); assay: Inhibition of human liver cathepsin L using Cbz-Phe-Arg-pNA as substrate incubated for 30 mins measured for 20 mins by photometrical analysis
Chain of Procathepsin L (P07711 whole entry): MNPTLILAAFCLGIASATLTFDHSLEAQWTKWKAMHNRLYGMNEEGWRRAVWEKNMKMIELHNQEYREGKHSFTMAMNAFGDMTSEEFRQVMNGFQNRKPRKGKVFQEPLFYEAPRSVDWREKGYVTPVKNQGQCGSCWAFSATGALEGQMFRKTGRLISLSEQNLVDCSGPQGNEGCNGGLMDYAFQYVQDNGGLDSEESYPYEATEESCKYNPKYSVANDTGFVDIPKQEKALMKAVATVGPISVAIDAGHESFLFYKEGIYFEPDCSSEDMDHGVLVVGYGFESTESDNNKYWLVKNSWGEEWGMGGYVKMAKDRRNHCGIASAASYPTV

Cathepsin K = target: T2, Cathepsin K (Homo sapiens, UniProt P43235); assay: Inhibition of human recombinant cathepsin K using Cbz-Leu-Arg-AMC as substrate incubated for 30 mins measured for 20 mins by spectrofluorometrical analysis
T2 sequence (P43235 whole entry): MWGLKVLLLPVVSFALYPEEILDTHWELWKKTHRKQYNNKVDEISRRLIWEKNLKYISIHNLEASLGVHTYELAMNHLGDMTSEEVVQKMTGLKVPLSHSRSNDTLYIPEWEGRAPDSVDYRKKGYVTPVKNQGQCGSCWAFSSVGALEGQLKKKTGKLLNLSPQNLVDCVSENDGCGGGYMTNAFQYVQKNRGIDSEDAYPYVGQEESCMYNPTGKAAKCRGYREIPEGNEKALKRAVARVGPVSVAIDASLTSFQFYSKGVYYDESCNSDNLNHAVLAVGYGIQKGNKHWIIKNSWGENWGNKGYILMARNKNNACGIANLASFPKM

Cathepsin B [2] = target: T1, Cathepsin B; assay: Inhibition of human liver cathepsin B using Cbz-Arg-Arg-pNA as substrate at pH 4.5 incubated for 30 mins measured for 20 mins by photometrical analysis
Cathepsin B [3] = target: T1, Cathepsin B; assay: Inhibition of human liver cathepsin B using Abz-Gly-Ile-Val-Arg-Ala-Lys(Dnp)-OH as substrate at pH 4.5 incubated for 30 mins measured for 10 mins by […]
Cathepsin B [4] = target: T1, Cathepsin B; assay: Inhibition of human cathepsin B

| Compound | pKi (Cathepsin B [1]) | also measured |
| --- | --- | --- |
| N#CCNC(=O)CNC(=O)OCc1ccccc1 | < 6.48 | – |
| C[C@@H](C#N)N(C)C(=O)[C@H](Cc1ccccc1)NC(=O)OC(C)(C)C | < 6.48 | – |
| CC(C)(C)OC(=O)N[C@@H](Cc1c[nH]c2ccccc12)C(=O)NCC#N | < 6.48 | – |
| CC(C)C[C@H](NC(=O)c1ccc(-c2ccccc2)cc1)C(=O)NCC#N | – | pKi (Cathepsin B [4]): 5.75 |
| CC(C)(C)OC(=O)N[C@@H](CC1CCCCC1)C(=O)NCC#N | < 6.48 | – |
| CC(C)(C)OC(=O)N[C@@H](Cc1ccc(-c2ccccc2)cc1)C(=O)NCC#N | < 6.48 | – |
| N#CCNC(=O)[C@H](Cc1ccccc1)NC(=O)c1ccccc1 | < 6.48 | – |
| C[C@@H](C#N)NC(=O)[C@H](Cc1ccccc1)NC(=O)OCc1ccccc1 | < 6.48 | – |
| CC(C)(C)OC(=O)N[C@@H](Cc1ccc(Br)cc1)C(=O)NCC#N | < 6.48 | – |
| N#CCNC(=O)[C@H](CC1CCCCC1)NC(=O)c1ccc(-c2ccccc2)cc1 | < 6.48 | – |
| CN(CC#N)C(=O)[C@H](Cc1ccccc1)NC(=O)OC(C)(C)C | < 6.48 | – |
| CC[C@H](NC(=O)OC(C)(C)C)C(=O)NCC#N | < 6.48 | – |
| N#C[C@H](Cc1cn(CCC(=O)O)nn1)NC(=O)[C@H](Cc1cccc(Br)c1)NC(=O)c1ccc(-c2ccccc2)cc1 | – | pKi (Cathepsin S): 5.74; pKi (Procathepsin L): 5.16; pKi (Cathepsin K): 6.65 |
| CC(C)(C)OC(=O)N[C@@H](COCc1ccccc1)C(=O)NCC#N | < 6.48 | – |
| CSCC[C@@H](C#N)NC(=O)[C@H](CC(C)C)NC(=O)OC(C)(C)C | < 6.48 | – |
| CC(C)(C)OC(=O)N[C@@H](Cc1cccc2ccccc12)C(=O)NCC#N | < 6.48 | – |
| N#CCNC(=O)[C@H](Cc1ccc(O)cc1)NC(=O)OCc1ccccc1 | < 6.48 | – |
| CC(C)(C)OC(=O)N1CCC[C@H]1C(=O)NCC#N | < 6.48 | – |
| N#CCNC(=O)[C@H](CC1CCCCC1)NC(=O)c1ccc(-c2noc(-c3cccs3)n2)cc1 | < 6.48 | – |
| CSCC[C@@H](C#N)NC(=O)[C@H](CC1CCCCC1)NC(=O)OC(C)(C)C | < 6.48 | – |
| N#CCNC(=O)C1(NC(=O)c2ccc(-c3noc(-c4cccs4)n3)cc2)CCCCC1 | < 6.48 | – |
| CC(C)(C)OC(=O)N[C@@H](Cc1ccc(F)cc1)C(=O)NCC#N | < 6.48 | – |
| N#CCNC(=O)[C@@H](N)Cc1ccccc1 | < 6.48 | – |
| CC(C)(C)OC(=O)N[C@@H](CC1CC1)C(=O)NCC#N | < 6.48 | – |

| Compound | pKi (Cathepsin B [1]) | also measured |
| --- | --- | --- |
| CC(C)C[C@@H](C#N)NC(=O)[C@H](C)NC(=O)CNC(=O)OCc1ccccc1 | < 6.48 | – |
| CC(C)(C)OC(=O)N[C@@H](Cc1ccc(O)cc1)C(=O)NCC#N | < 6.48 | – |
| CC(=O)N[C@@H](Cc1ccccc1)C(=O)NCC#N | < 6.48 | – |
| CN(CC#N)C(=O)[C@H](Cc1ccccc1)NC(=O)OCc1ccccc1 | < 6.48 | – |
| N#CCNC(=O)[C@H](Cc1ccccc1)NC(=O)OCc1ccccc1 | < 6.48 | – |
| CC(C)(C)OC(=O)N[C@@H](CCc1ccccc1)C(=O)NCC#N | < 6.48 | – |
| CC(C)(C)OC(=O)N[C@@H](Cc1ccccc1)C(=O)N[C@H](C#N)CC#N | < 6.48 | – |
| CSCC[C@@H](C#N)NC(=O)C(CC(C)C)NC(=O)c1ccc(-c2ccccc2)cc1 (some centres not stated) | < 6.48 | – |
| CC(C)[C@H](NC(=O)OC(C)(C)C)C(=O)NCC#N | < 6.48 | – |
| CC(C)C[C@H](NC(=O)c1ccc(-c2noc(-c3cccs3)n2)cc1)C(=O)NCC#N | < 6.48 | – |
| CC(C)(C)OC(=O)N[C@H](Cc1ccccc1)C(=O)NCC#N | < 6.48 | – |
| C[C@H](NC(=O)OC(C)(C)C)C(=O)NCC#N | < 6.48 | – |
| CC(C)(C)OC(=O)N[C@@H](Cc1ccccc1Br)C(=O)NCC#N | < 6.48 | – |
| CC(C)(C)OC(=O)N[C@H](C(=O)NCC#N)c1ccccc1 | < 6.48 | – |
| CSCC[C@@H](C#N)NC(=O)[C@H](Cc1ccccc1)NC(=O)OC(C)(C)C | < 6.48 | – |
| CC(C)(C)OC(=O)N[C@@H](Cc1ccco1)C(=O)NCC#N | < 6.48 | – |
| CCC(C)[C@H](NC(=O)OC(C)(C)C)C(=O)NCC#N (some centres not stated) | < 6.48 | – |
| COc1ccc(C[C@H](NC(=O)OCc2ccccc2)C(=O)NCC#N)cc1 | < 6.48 | – |
| CSCC[C@H](NC(=O)OC(C)(C)C)C(=O)NCC#N | < 6.48 | – |
| CC(C)(C)OC(=O)N[C@@H](Cc1cccs1)C(=O)NCC#N | < 6.48 | – |
| N#CCNC(=O)C1(NC(=O)OCc2ccccc2)CCCCC1 | < 6.48 | – |
| CCCC[C@H](NC(=O)OC(C)(C)C)C(=O)NCC#N | < 6.48 | – |
| CC(C)C[C@H](NC(=O)Nc1ccc(-c2noc(-c3cccs3)n2)cc1)C(=O)NCC#N | < 6.48 | – |

Second part, led by results:

| pKi (Cathepsin B [1]) | Compound | also measured |
| --- | --- | --- |
| 4.00 | N#C[C@H](CCOCc1cn(CC(=O)O)nn1)NC(=O)[C@H](Cc1ccccc1)NC(=O)OCc1ccccc1 | pKi (Cathepsin S): 6.00; pKi (Procathepsin L): 5.67; pKi (Cathepsin K): 6.24 |
| 7.59 | COC(=O)Cn1cc(COC[C@@H](C#N)NC(=O)[C@H](Cc2cccc(Br)c2)NC(=O)c2ccc(-c3ccccc3)cc2)nn1 | pKi (Cathepsin B [2]): 6.87; pKi (Cathepsin B [3]): 6.88; pKi (Cathepsin S): 6.73; pKi (Procathepsin L): 6.37; pKi (Cathepsin K): 7.17 |
| < 6.48 | CCC[C@H](NC(=O)OC(C)(C)C)C(=O)NCC#N | – |
| < 6.48 | CC(C)(C)OC(=O)NCC(=O)NCC#N | – |
| 4.03 | CC(C)C[C@H](NC(=O)OC(C)(C)C)C(=O)NCC#N | – |
| 6.92 | N#CCNC(=O)[C@H](Cc1cccc(Br)c1)NC(=O)c1ccc(-c2ccccc2)cc1 | pKi (Cathepsin B [2]): 6.69; pKi (Cathepsin B [3]): 6.66; pKi (Cathepsin S): 6.75; pKi (Procathepsin L): 6.22; pKi (Cathepsin K): 6.03 |
| 4.49 | CC(C)C[C@H](NC(=O)OCc1ccccc1)C(=O)NCC#N | – |
| 3.71 | N#C[C@H](CCOCc1cn(CCC(=O)O)nn1)NC(=O)[C@H](Cc1ccccc1)NC(=O)OCc1ccccc1 | pKi (Cathepsin S): 6.31; pKi (Procathepsin L): 5.72; pKi (Cathepsin K): 6.43 |
| 6.90 | N#CCNC(=O)[C@H](Cc1ccc2ccccc2c1)NC(=O)c1ccc(-c2ccccc2)cc1 | pKi (Cathepsin S): 6.74; pKi (Procathepsin L): 5.37; pKi (Cathepsin K): 5.35 |
| 5.29 | CC(C)(C)OC(=O)N[C@@H](Cc1cccc(Br)c1)C(=O)NCC#N | – |
| 4.95 | N#C[C@H](Cc1cn(CC(=O)O)nn1)NC(=O)[C@H](Cc1cccc(Br)c1)NC(=O)c1ccc(-c2ccccc2)cc1 | pKi (Cathepsin B [2]): 6.15; pKi (Cathepsin B [3]): 6.43; pKi (Cathepsin S): 5.37; pKi (Procathepsin L): 4.93; pKi (Cathepsin K): 6.27 |
| 5.46 | CC(C)(C)OC(=O)N[C@@H](Cc1ccc2ccccc2c1)C(=O)NCC#N | – |
| 5.91 | N#CCNC(=O)[C@H](Cc1cccc(-c2ccccc2)c1)NC(=O)c1ccc(-c2ccccc2)cc1 | pKi (Cathepsin S): 5.58; pKi (Procathepsin L): 6.15; pKi (Cathepsin K): 7.61 |
| 4.43 | CC(C)(C)OC(=O)N[C@@H](Cc1ccccc1)C(=O)NCC#N | – |
| 7.38 | N#C[C@H](COCc1cn(CC(=O)O)nn1)NC(=O)[C@H](Cc1cccc(Br)c1)NC(=O)c1ccc(-c2ccccc2)cc1 | pKi (Cathepsin B [2]): 7.56; pKi (Cathepsin B [3]): 7.72; pKi (Cathepsin S): 6.45; pKi (Procathepsin L): 5.20; pKi (Cathepsin K): 6.47 |
| 4.48 | N#C[C@H](COCc1cn(CCC(=O)O)nn1)NC(=O)[C@H](Cc1ccccc1)NC(=O)OCc1ccccc1 | pKi (Cathepsin S): 5.65; pKi (Procathepsin L): 5.90; pKi (Cathepsin K): 6.43 |
| 6.48 | CSCC[C@@H](C#N)NC(=O)[C@H](CC(C)C)NC(=O)c1ccc(-c2ccccc2)cc1 | – |
| 5.41 | N#CCNC(=O)[C@H](Cc1ccccc1)NC(=O)c1ccc(-c2ccccc2)cc1 | – |
| 4.62 | N#C[C@H](COCc1cn(CC(=O)O)nn1)NC(=O)[C@H](Cc1ccccc1)NC(=O)OCc1ccccc1 | pKi (Cathepsin S): 5.35; pKi (Procathepsin L): 5.98; pKi (Cathepsin K): 6.51 |
| 5.27 | CC(C)(C)OC(=O)N[C@@H](Cc1cccc(-c2ccccc2)c1)C(=O)NCC#N | – |
